From patent publication US20100190968A1, “OLEANANE TRITERPENE SAPONIN COMPOUNDS WHICH ARE EFFECTIVE ON TREATMENT OF DEMENTIA AND MILD COGNITIVE IMPAIRMENT (MCI) AND IMPROVEMENT OF COGNITIVE FUNCTION” (priority 2006, published 2010)

System: mice
Assay: Passive avoidance test (scopolamine-induced memory decline)
Type: in vivo, mouse
Conditions: scopolamine 1 mg/kg; for Retention time: measured up to 300 seconds
Experimental: Passive avoidance test was performed to identify the memory improvement effect of the above 8 oleanolic acid saponin or hederagenin saponin substances in the body. Also, oleanolic acid and hederagenin, aglycons of the saponin compounds, were included in the test. A shuttle box measuring 50 cm×15 cm×40 cm was used. The box was divided into two compartments by a guillotine door. One compartment was brightly illuminated and the other was covered by black cloth. A mouse was placed in the illuminated compartment. Then, when the guillotine door was open, the mouse moved into the dark compartment within 20 seconds because it prefers darkness. The guillotine door was closed automatically as soon as the mouse entered the dark compartment. In this way, the latency time, or the time that elapsed until a mouse left the illuminated compartment and entered the dark compartment, was determined. On the first day, this training trial was performed until all the mice entered the dark compartment within 20 seconds. On the following day, the trained mice were placed in the illuminated compartment, one at a time, and were allowed to move into the dark compartment. When the mice entered the dark compartment, a foot-shock (0.8 mA, 3 seconds) was delivered through the electronic grid equipped on the floor of the dark compartment. 24 hours after this acquisition trial, the mice were placed in the illuminated compartment and were allowed to move into the dark compartment. Then, normal mice hesitated to move into the dark compartment remembering the shock of the day before. The time elapsed until the mice entered the dark compartment was measured up to 300 seconds. Retention time was measured to evaluate the memory improvement effect. Neither scopolamine nor the drug was administered to the control group. Scopolamine (1 mg/kg), which is known to decline memory function by inhibiting the transfer of neurotransmitters, was administered. An hour later, saponin (30 mg/kg) and aglycon (30 mg/kg), […] (donepezil, 1 mg/kg, positive control) and water (negative control) were administered.

[1] = saponin or aglycon 30 mg/kg administered once orally 1 hour later, 24 hours after acquisition trial
[2] = saponin or aglycon 30 mg/kg 1 hour later

C[C@@H]1O[C@@H](O[C@H]2[C@H](O[C@H]3CC[C@]4(C)[C@H]5CC=C6[C@@H]7CC(C)(C)CC[C@]7(C(=O)O[C@@H]7O[C@H](CO[C@@H]8O[C@H](CO)[C@@H](O[C@@H]9O[C@@H](C)[C@H](O)[C@@H](O)[C@H]9O)[C@H](O)[C@H]8O)[C@@H](O)[C@H](O)[C@H]7O)CC[C@@]6(C)[C@]5(C)CC[C@H]4C3(C)C)OC[C@H](O)[C@@H]2O)[C@H](O)[C@H](O)[C@H]1O [Hederasaponin B, 3-O-α-L-Rhamnopyranosyl(1→2)-α-L-arabinopyranosyloleanolic acid-28-O-α-L-rhamnopyranosyl(1→4)-β-D-glucopyranosyl(1→6)-β-D-glucopyranosyl ester]
Retention time [1]: 172.3 ± 29.1 s

3-O-β-D-Xylopyranosyl(1→2)-β-D-galactopyranosyl(1→3)-β-D-glucolopyranosyloleanolic acid-28-O-β-D-glucopyranosyl ester [Elatoside C]
Retention time [1]: 160.1 ± 15.6 s

COc1cc2c(cc1OC)C(=O)C(CC1CCN(Cc3ccccc3)CC1)C2 (centres unmarked) [Aricept, donepezil, reference compound]
times longer retention time than the negative control group (water) (Aricept 1 mg/kg orally 1 hour later): 1.6 times
Retention time (Aricept (donepezil) 1 mg/kg orally 1 hour later, positive control): 98.5 ± 10.6 s

CC1OC(OC2C(CO)OC(OCC3OC(OC(=O)C45CCC(C)(C)CC4C4=CCC6C7(C)CCC(OC8OCC(OC9OC(CO)C(O)C(O)C9OC9OC(C)C(O)C(O)C9O)C(O)C8O)C(C)(C)C7CCC6(C)C4(C)CC5)C(O)C(O)C3O)C(O)C2O)C(O)C(O)C1O [Hederacolchiside E, 3-O-α-L-Rhamnopyranosyl(1→2)-β-D-glucopyranosyl(1→4)-α-L-arabinopyranosyloleanolic acid-28-O-α-L-rhamnopyranosyl(1→4)-β-D-glucopyranosyl(1→6)-β-D-glucopyranosyl ester]
Retention time [1]: 155.7 ± 31.2 s

3-O-β-D-Xylopyranosyl(1→2)-β-D-galactopyranosyl(1→3)-β-D-glucolopyranosyloleanolic acid [Elatoside A]
Retention time [1]: 166.0 ± 24.8 s

CC1(C)CC[C@]2(C(=O)O)CC[C@]3(C)C(=CC[C@@H]4[C@@]5(C)CC[C@H](O)[C@@](C)(CO)[C@@H]5CC[C@]43C)[C@@H]2C1 [Hederagenin, hederagenin, reference compound]
times longer retention time than the negative control group (water) [2]: 2.3 times
Retention time [1]: 142.8 ± 32.6 s

CC1(C)CC[C@]2(C(=O)O)CC[C@]3(C)C(=CC[C@@H]4[C@@]5(C)CC[C@H](O)C(C)(C)[C@@H]5CC[C@]43C)[C@@H]2C1 [Oleanolic acid, oleanolic acid, reference compound]
times longer retention time than the negative control group (water) [2]: 2.4 times
Retention time [1]: 149.4 ± 19.7 s

C[C@@H]1O[C@@H](O[C@H]2[C@H](O[C@H]3CC[C@@]4(C)[C@@H](CC[C@]5(C)[C@@H]4CC=C4[C@@H]6CC(C)(C)CC[C@]6(C(=O)O[C@@H]6O[C@H](CO[C@@H]7O[C@H](CO)[C@@H](O[C@@H]8O[C@@H](C)[C@H](O)[C@@H](O)[C@H]8O)[C@H](O)[C@H]7O)[C@@H](O)[C@H](O)[C@H]6O)CC[C@]45C)[C@]3(C)CO)OC[C@H](O)[C@@H]2O)[C@H](O)[C@H](O)[C@H]1O [Kalopanaxsaponin B, 3-O-α-L-Rhamnopyranosyl(1→2)-α-L-arabinopyranosylhederagenin-28-O-α-L-rhamnopyranosyl(1→4)-β-D-glucopyranosyl(1→6)-β-D-glucopyranosyl ester]
Retention time [1]: 170.5 ± 24.6 s

CC1OC(OC2C(OCC3OC(OC(=O)C45CCC(C)(C)CC4C4=CCC6C7(C)CCC(OC8OCC(O)C(O)C8OC8OC(C)C(O)C(O)C8O)C(C)(CO)C7CCC6(C)C4(C)CC5)C(O)C(O)C3O)OCC(O)C2O)C(O)C(O)C1O [Loniceroside B, 3-O-α-L-Rhamnopyranosyl(1→2)-α-L-arabinopyranosylhederagenin-28-O-α-L-rhamnopyranosyl(1→2)-β-D-xylopyranosyl(1→6)-β-D-glucopyranosyl ester]
Retention time [1]: 169.7 ± 25.4 s

C[C@@H]1O[C@@H](O[C@H]2[C@H](O[C@H]3CC[C@]4(C)[C@H]5CC=C6[C@@H]7CC(C)(C)CC[C@]7(C(=O)O)CC[C@@]6(C)[C@]5(C)CC[C@H]4C3(C)C)OC[C@H](O)[C@@H]2O)[C@H](O)[C@H](O)[C@H]1O [Eleutheroside K, 3-O-α-L-Rhamnopyranosyl(1→2)-α-L-arabinopyranosyloleanolic acid]
Retention time [1]: 182.6 ± 15.9 s

C[C@@H]1O[C@@H](O[C@H]2[C@H](OC[C@H]3O[C@@H](OC(=O)[C@]45CCC(C)(C)C[C@H]4C4=CC[C@@H]6[C@@]7(C)CC[C@H](O[C@@H]8OC[C@H](O)[C@H](O)[C@H]8O)[C@@](C)(CO)[C@@H]7CC[C@@]6(C)[C@]4(C)CC5)[C@H](O)[C@@H](O)[C@@H]3O)OC[C@@H](O)[C@@H]2O)[C@H](O)[C@H](O)[C@H]1O [Loniceroside A, 3-O-α-L-Arabinopyranosylhederagenin-28-O-α-L-rhamnopyranosyl(1→2)-β-D-xylopyranosyl(1→6)-β-D-glucopyranosyl ester]
Retention time [1]: 175.3 ± 21.1 s
